Measured values from EP4603105A1, “PHARMACEUTICAL COMPOSITION CONTAINING CYCLIC COMPOUND HAVING SELECTIVE KRAS INHIBITORY EFFECT AGAINST HRAS AND NRAS” (CHUGAI SEIYAKU KABUSHIKI KAISHA, priority 2022, dated 2024).

Key:
[1] = system: human lung cancer strain NCI-H441; assay: NCI-H441 cell proliferation inhibitory activity (CellTiter-Glo, 4 days); format: cell-based; settings: 50% proliferation inhibitory concentration, four days, read-out: NCl-H441 IC50
Outline: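 Signal came from […] measured per well once the reagent was added. Beforehand, cells were cultured at 37°C and 5% carbon dioxide on a compound series serially diluted in dimethyl sulfoxide.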

[2] = biological target: GDP-bound NRAS wild-type protein (Homo sapiens, UniProt P01111); assay: Binding to NRAS by surface plasmon resonance (SPR), KD and KD ratio to KRAS; settings: ratio of KD with respect to GDP-bound NRAS wild-type protein to KD with respect to KRAS
Outline: (§1)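 Measured at 30°C: SPR with GDP-loaded, E. coli-expressed biotin-Avi RAS captured (~100–300 RU), ascending 75 s compound injections, HBS pH 7.4 with GDP, MgCl2, 4% DMSO. KD from 1:1 fit.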

[3] = biological target: GDP-bound KRAS wild-type protein (Homo sapiens, UniProt P01116); assay: Binding to KRAS by surface plasmon resonance (SPR), dissociation constant KD; settings: Single Cycle Kinetics, 1:1 binding model
Outline: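 SPR, 30°C: Avi-biotin RAS·GDP captured via Biotin CAPture (~100–300 RU); running buffer HBS pH 7.4, 1 mM DTT, 10 mM MgCl2, 0.01% Tween 20, 10 µM GDP, 4% DMSO. Single-cycle kinetics, 100 µL/min, 75 s injections; 1:1 model → KD.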

[4] = biological target: HRAS wild-type protein (Homo sapiens, UniProt P01112); assay: Binding to HRAS by surface plasmon resonance (SPR), KD and KD ratio to KRAS; settings: ratio of KD with respect to HRAS wild-type protein to KD with respect to KRAS
Outline: as §1

Chain of GDP-bound NRAS wild-type protein (P01111 whole entry): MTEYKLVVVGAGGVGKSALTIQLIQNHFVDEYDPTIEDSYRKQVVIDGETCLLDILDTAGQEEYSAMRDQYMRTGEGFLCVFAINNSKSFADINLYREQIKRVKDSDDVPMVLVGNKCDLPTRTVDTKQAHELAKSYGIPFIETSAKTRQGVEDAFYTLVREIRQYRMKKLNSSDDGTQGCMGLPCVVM
Chain of HRAS wild-type protein (P01112 whole entry): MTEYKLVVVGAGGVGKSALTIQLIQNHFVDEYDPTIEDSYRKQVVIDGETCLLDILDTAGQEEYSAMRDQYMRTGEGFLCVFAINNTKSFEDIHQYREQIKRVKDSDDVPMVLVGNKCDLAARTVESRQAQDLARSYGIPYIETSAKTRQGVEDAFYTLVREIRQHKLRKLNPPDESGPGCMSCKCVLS
Chain of GDP-bound KRAS wild-type protein (P01116 1-188 isoform P01116-2): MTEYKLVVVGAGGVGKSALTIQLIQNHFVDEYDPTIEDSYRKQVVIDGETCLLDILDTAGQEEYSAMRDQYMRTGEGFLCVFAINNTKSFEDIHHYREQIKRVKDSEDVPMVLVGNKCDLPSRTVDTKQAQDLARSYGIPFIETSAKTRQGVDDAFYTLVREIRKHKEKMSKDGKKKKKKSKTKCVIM

Structure (SMILES)	IC50 [1]	NRAS /KRAS [2]	Kd [3]	HRAS /KRAS [4]
CCO[C@@H]1C[C@H]2C(=O)NC3(CCC3)C(=O)N(C)[C@@H](C(CC)CC)C(=O)N(C)[C@H](C(=O)N(C)C)CC(=O)N(C)[C@@H](CC(C)C)C(=O)N[C@@H]([C@@H](C)CC)C(=O)N(C)CC(=O)N(C)[C@H]3C/C=C\CCN(C3=O)[C@@H](Cc3ccc(C(F)(F)F)cc3)C(=O)N(C)CC(=O)N[C@@H](CCc3ccc(Cl)c(Cl)c3)C(=O)N2C1 [PP1217]	17.8 nM	AA (a compound having 20 or more is denoted as AA)	0.48 nM	A (a compound having 10 or more and less than 20 is denoted as A)
CCCCCC[C@H]1C(=O)N[C@@H]([C@@H](C)CC)C(=O)N(C)CC(=O)N(C)[C@H]2C/C=C\CCN(C2=O)[C@@H](Cc2ccc(C(F)(F)F)cc2)C(=O)N(C)CC(=O)N[C@@H](CCc2ccc(Cl)c(Cl)c2)C(=O)N2C[C@H](OCC)C[C@H]2C(=O)NC2(CCC2)C(=O)N(C)[C@@H](C(CC)CC)C(=O)N(C)[C@H](C(=O)N(C)C)CC(=O)N1C [PP1218]	67.9 nM	AA (a compound having 20 or more is denoted as AA)	0.88 nM	A (a compound having 10 or more and less than 20 is denoted as A)
CCO[C@@H]1C[C@H]2C(=O)NC3(CCC3)C(=O)N(C)[C@@H](C(CC)CC)C(=O)N(C)[C@H](C(=O)N(C)C)CC(=O)N(C)[C@@H](CC3CC3)C(=O)N[C@@H]([C@@H](C)CC)C(=O)N(C)CC(=O)N(C)[C@H]3C/C=C\CCN(C3=O)[C@@H](Cc3ccc(C(F)(F)F)cc3)C(=O)N(C)CC(=O)N[C@@H](CCc3ccc(Cl)c(Cl)c3)C(=O)N2C1 [PP1219]	21.4 nM	AA (a compound having 20 or more is denoted as AA)	0.35 nM	A (a compound having 10 or more and less than 20 is denoted as A)
CCO[C@@H]1C[C@H]2C(=O)NC3(CCC3)C(=O)N(C)[C@@H](C(CC)CC)C(=O)N(C)[C@H](C(=O)N(C)C)CC(=O)N(C)[C@@H](COC)C(=O)N[C@@H]([C@@H](C)CC)C(=O)N(C)CC(=O)N(C)[C@H]3C/C=C\CCN(C3=O)[C@@H](Cc3ccc(C(F)(F)F)cc3)C(=O)N(C)CC(=O)N[C@@H](CCc3ccc(Cl)c(Cl)c3)C(=O)N2C1 [PP1221]	40.6 nM	AA (a compound having 20 or more is denoted as AA)	0.4 nM	A (a compound having 10 or more and less than 20 is denoted as A)
CCO[C@@H]1C[C@H]2C(=O)NC3(CCC3)C(=O)N(C)[C@@H](C(CC)CC)C(=O)N(C)[C@H](C(=O)N(C)C)CC(=O)N(C)[C@@H](C)C(=O)N[C@@H]([C@@H](C)CC)C(=O)N(C)CC(=O)N(C)[C@H]3C/C=C\CCN(C3=O)[C@@H](Cc3ccc(C(F)(F)F)cc3)C(=O)N(C)CC(=O)N[C@@H](CCc3ccc4sccc4c3)C(=O)N2C1 [PP1222]	301 nM	A (a compound having 10 or more and less than 20 is denoted as A)	1.2 nM	A (a compound having 10 or more and less than 20 is denoted as A)
CCO[C@@H]1C[C@H]2C(=O)NC3(CCC3)C(=O)N(C)[C@@H](C(CC)CC)C(=O)N(C)[C@H](C(=O)N(C)C)CC(=O)N(C)[C@@H](CC)C(=O)N[C@@H]([C@@H](C)CC)C(=O)N(C)CC(=O)N(C)[C@H]3C/C=C\CCN(C3=O)[C@@H](Cc3ccc(C(F)(F)F)cc3)C(=O)N(C)CC(=O)N[C@@H](CCc3ccc4sccc4c3)C(=O)N2C1 [PP1223]	117 nM	AA (a compound having 20 or more is denoted as AA)	1.2 nM	A (a compound having 10 or more and less than 20 is denoted as A)
CCO[C@@H]1C[C@H]2C(=O)NC3(CCC3)C(=O)N(C)[C@@H](C(CC)CC)C(=O)N(C)[C@H](C(=O)N(C)C)CC(=O)N(C)[C@@H](CC(C)C)C(=O)N[C@@H]([C@@H](C)CC)C(=O)N(C)CC(=O)N(C)[C@H]3C/C=C\CCN(C3=O)[C@@H](Cc3ccc(C(F)(F)F)cc3)C(=O)N(C)CC(=O)N[C@@H](CCc3ccc4sccc4c3)C(=O)N2C1 [PP1225]	92.5 nM	AA (a compound having 20 or more is denoted as AA)	1.1 nM	A (a compound having 10 or more and less than 20 is denoted as A)
CCO[C@@H]1C[C@H]2C(=O)NC3(CCC3)C(=O)N(C)[C@@H](C(CC)CC)C(=O)N(C)[C@H](C(=O)N(C)C)CC(=O)N(C)[C@@H](CC)C(=O)N[C@@H]([C@@H](C)CC)C(=O)N(C)CC(=O)N(C)[C@H]3C/C=C\CCN(C3=O)[C@@H](Cc3ccc(C(F)(F)F)cc3)C(=O)N(C)CC(=O)N[C@@H](CCc3cc(F)c(Cl)c(F)c3)C(=O)N2C1 [PP1230]	110 nM	A (a compound having 10 or more and less than 20 is denoted as A)	0.77 nM	A (a compound having 10 or more and less than 20 is denoted as A)
CCC[C@H]1C(=O)N[C@@H]([C@@H](C)CC)C(=O)N(C)CC(=O)N(C)[C@H]2C/C=C\CCN(C2=O)[C@@H](Cc2ccc(C(F)(F)F)cc2)C(=O)N(C)CC(=O)N[C@@H](CCc2cc(F)c(Cl)c(F)c2)C(=O)N2C[C@H](OCC)C[C@H]2C(=O)NC2(CCC2)C(=O)N(C)[C@@H](C(CC)CC)C(=O)N(C)[C@H](C(=O)N(C)C)CC(=O)N1C [PP1231]	23.1 nM	AA (a compound having 20 or more is denoted as AA)	0.56 nM	A (a compound having 10 or more and less than 20 is denoted as A)
CCO[C@@H]1C[C@H]2C(=O)NC3(CCC3)C(=O)N(C)[C@@H](C3CCCC3)C(=O)N(C)[C@@H](C(=O)N(C)C)CC(=O)N(C)[C@@H](CC)C(=O)N[C@@H]([C@@H](C)CC)C(=O)N(C)CC(=O)N(C)[C@H]3C/C=C\CCN(C3=O)[C@@H](Cc3ccc(C(F)(F)F)cc3)C(=O)N(C)CC(=O)N[C@@H](CCc3cc(F)c(C(F)(F)F)c(F)c3)C(=O)N2C1 [PP1234]	398 nM	B (a compound having 3 or more and less than 10 is denoted as B)	3.8 nM	C (A compound having a KD ratio of 0.1 or more and less than 3 is denoted as C)
CCCCCC[C@H]1C(=O)N[C@@H]([C@@H](C)CC)C(=O)N(C)CC(=O)N(C)[C@H]2C/C=C\CCN(C2=O)[C@@H](Cc2ccc(C(F)(F)F)cc2)C(=O)N(C)CC(=O)N[C@@H](CCc2cc(F)c(C(F)(F)F)c(F)c2)C(=O)N2C[C@H](OCC)C[C@H]2C(=O)NC2(CCC2)C(=O)N(C)[C@@H](C2CCCC2)C(=O)N(C)[C@H](C(=O)N(C)C)CC(=O)N1C [PP1242]	12.8 nM	A (a compound having 10 or more and less than 20 is denoted as A)	0.076 nM	A (a compound having 10 or more and less than 20 is denoted as A)
CCO[C@@H]1C[C@H]2C(=O)NC3(CCC3)C(=O)N(C)[C@@H](C3CCCC3)C(=O)N(C)[C@H](C(=O)N(C)C)CC(=O)N(C)[C@@H](CC(C)C)C(=O)N[C@@H]([C@@H](C)CC)C(=O)N(C)CC(=O)N(C)[C@H]3C/C=C\CCN(C3=O)[C@@H](Cc3ccc(C(F)(F)F)cc3)C(=O)N(C)CC(=O)N[C@@H](CCc3ccc(C(F)(F)F)c(OC)c3)C(=O)N2C1 [PP1245]	3.7 nM	A (a compound having 10 or more and less than 20 is denoted as A)	0.06 nM	B (a compound having 3 or more and less than 10 is denoted as B)
CCCCCC[C@H]1C(=O)N[C@@H]([C@@H](C)CC)C(=O)N(C)CC(=O)N(C)[C@H]2C/C=C\CCN(C2=O)[C@@H](Cc2ccc(C(F)(F)F)cc2)C(=O)N(C)CC(=O)N[C@@H](CCc2ccc(C(F)(F)F)c(OC)c2)C(=O)N2C[C@H](OCC)C[C@H]2C(=O)NC2(CCC2)C(=O)N(C)[C@@H](C2CCCC2)C(=O)N(C)[C@H](C(=O)N(C)C)CC(=O)N1C [PP1246]	9 nM	A (a compound having 10 or more and less than 20 is denoted as A)	0.081 nM	A (a compound having 10 or more and less than 20 is denoted as A)
CCO[C@@H]1C[C@H]2C(=O)NC3(CCC3)C(=O)N(C)[C@@H](C3CCCC3)C(=O)N(C)[C@H](C(=O)N(C)C)CC(=O)N(C)[C@@H](CC3CC3)C(=O)N[C@@H]([C@@H](C)CC)C(=O)N(C)CC(=O)N(C)[C@H]3C/C=C\CCN(C3=O)[C@@H](Cc3ccc(C(F)(F)F)cc3)C(=O)N(C)CC(=O)N[C@@H](CCc3ccc(C(F)(F)F)c(OC)c3)C(=O)N2C1 [PP1247]	6.4 nM	A (a compound having 10 or more and less than 20 is denoted as A)	0.046 nM	A (a compound having 10 or more and less than 20 is denoted as A)
